Assay results from patent US10633389B2, “CARM1 inhibitors and uses thereof” (Epizyme, Inc., priority 2013, dated 2020).

Test system: asymmetric di-methyl PABP1 in RKO cells
Test: RKO methylation assay, In Cell Western (ICW) for asymmetric di-methyl PABP1
Assay type: cell-based
Details: Homo sapiens, RKO, Cellular potencies, ICW PABP1me2a
Procedure, shortened: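 In-cell Western on fixed RKO cells after 48 h compound exposure: anti-asymmetric di-methyl PABP1 signal at 800 nm over DRAQ5 DNA signal at 700 nm. Percent inhibition set between DMSO wells and wells with 20 μM reference compound; IC50 curves fitted in triplicate.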

`CNCC(O)COc1cccc(-c2nc(NC3CCN(C4COC4)CC3)c(C)c(-c3c(C)noc3C)n2)c1` (stereo not shown) [Example 263-1a] and `CNC[C@H](O)COc1cccc(-c2nc(NC3CCOCC3)c(C)c(-c3c(C)noc3C)n2)c1` [Example 55-1a] cannot be ordered by IC50: < 5 µM for the first, < 5 µM for the second.

`CCOC(=O)N1CCC(Nc2nc(-c3cc(OC[C@@H](O)CNC)ccc3Cl)nc(-c3c(C)noc3C)c2C)CC1` [Example 105-3] and `CCOC(=O)N1CC[C@@H](Nc2nc(-c3cc(OC[C@H](O)CNC)ccc3Cl)nc(-c3c(C)noc3C)c2Cl)C1` [Example 129-3] cannot be ordered by IC50: < 5 µM for the first, < 5 µM for the second.

`CNCC(O)COc1cccc(-c2nc(N[C@@H]3CCNC[C@@H]3F)c(C)c(-c3c(C)noc3C)n2)c1` (stereo partly shown) [Example 224-1a] and `CNCC(O)COc1cccc(-c2nc(NC3CC(F)C3)c(C)c(-c3c(C)noc3C)n2)c1` (stereo not shown) [Example 3-3] cannot be ordered by IC50: < 5 µM for the first, < 5 µM for the second.

First: CNCC(O)COc1cccc(-c2nc(-c3c(C)noc3C)c(C)c(N3CCN(C(=O)C4CCOCC4)CC3)n2)c1 (stereo not shown) [Example 108-1a]
Second: CNCC(O)COc1cccc(-c2nc(-c3c(C)noc3C)c(C)c(N3CCO[C@@H](C)C3)n2)c1 (stereo partly shown) [Example 209-1a]
The IC50 of the first is lower: < 5 µM for the first, 5 to 10 µM for the second.

`CNC[C@@H](O)COc1ccc(Cl)c(-c2nc(N[C@@H]3CCN(C(=O)OC)[C@H](C)C3)c(C)c(-c3c(C)noc3C)n2)c1` [Example 135-3] and `CNC[C@@H](O)COc1ccc(Cl)c(-c2nc(N[C@H]3CCN(C(=O)OC)[C@@H](C)C3)c(C)c(-c3c(C)noc3C)n2)c1` [Example 169-3] cannot be ordered by IC50: < 5 µM for the first, < 5 µM for the second.

First: CNCC(O)COc1cccc(-c2nc(Nc3cnc(OC)nc3)cc(-c3c(C)noc3C)n2)c1 (stereo not shown) [Example 72-1a]
Second: CNCC(O)COc1cccc(-c2nc(NC3CCOC3)cc(-c3c(C)noc3C)n2)c1 (stereo not shown) [Example 31-1a]
The IC50 of the first is lower: < 5 µM for the first, 5 to 10 µM for the second. The first is the more potent here.

`CNC[C@@H](O)COc1ccc(Cl)c(-c2nc(NC[C@@H]3CCCO3)c(C)c(-c3c(C)noc3C)n2)c1` [Example 131-3] and `CNC[C@@H](O)COc1ccc(Cl)c(-c2nc(NC[C@H]3CCCO3)c(Cl)c(-c3c(C)noc3C)n2)c1` [Example 215-3] cannot be ordered by IC50: < 5 µM for the first, < 5 µM for the second.

`CNCC(O)COc1cccc(-c2nc(NC3CCN(CC(F)F)CC3)c(C)c(-c3c(C)noc3C)n2)c1` (stereo not shown) [Example 188-1a] and `CNCC(O)COc1cccc(-c2nc(NC3CCN(C(=O)OC)CC3)c(C)c(-c3c(C)noc3C)n2)c1` (stereo not shown) [Example 118-1a] cannot be ordered by IC50: < 5 µM for the first, < 5 µM for the second.

`CNCC(O)COc1cccc(-c2nc(N[C@@H]3CCOC3)c(C)c(N3CCC(OC)CC3)n2)c1` (stereo partly shown) [Example 370-1a] and `CNCC(O)COc1cccc(-c2nc(N[C@@H]3CCOC3)c(C)c(N3CC[C@@H](O)C3)n2)c1` (stereo partly shown) [Example 437-1a] fall in the same range of IC50: 5 to 10 µM for the first, 5 to 10 µM for the second.

`CNC[C@H](O)COc1ccc(F)c(-c2nc(-c3c(C)noc3C)c(C)c(N3CCC4(CC3)CN(C(=O)OC)C4)n2)c1` [Example 84-3] and `CNCC(O)COc1cccc(-c2nc(-c3c(C)noc3C)c(C)c(N3CCC4(CC3)CN(S(C)(=O)=O)C4)n2)c1` (stereo not shown) [Example 179-1a] cannot be ordered by IC50: < 5 µM for the first, < 5 µM for the second.

`CNC[C@H](O)COc1ccc(Cl)c(-c2nc(N[C@H]3C[C@H](OC)C3)c(C)c(-c3c(C)noc3C)n2)c1` [Example 53-3] and `CNC[C@@H](O)COc1ccc(Cl)c(-c2nc(NC3CC(COC)C3)c(C)c(-c3c(C)noc3C)n2)c1` (stereo partly shown) [Example 219-3] cannot be ordered by IC50: < 5 µM for the first, < 5 µM for the second.

`CNC[C@@H](O)COc1ccc(F)c(-c2nc(-c3c(C)noc3C)c(C)c(N3Cc4cncnc4C3)n2)c1` [Example 260-3] and `CNC[C@@H](O)COc1ccc(Cl)c(-c2nc(-c3c(C)noc3C)c(C)c(N3Cc4cnc(C)nc4C3)n2)c1` [Example 245-3] cannot be ordered by IC50: < 5 µM for the first, < 5 µM for the second.

`CNCC(O)COc1cccc(-c2nc(N3CCC4(CCO4)CC3)cc(N(C)C3CCOCC3)n2)c1` (stereo not shown) [Example 579-1a] and `CNCC(O)COc1cccc(-c2nc(N3CC4(CCNCC4)c4ccccc43)cc(N(C)C3CCOCC3)n2)c1` (stereo not shown) [Example 559-1a] fall in the same range of IC50: 10 to 20 µM for the first, 10 to 20 µM for the second.

First: CNCC(O)COc1cccc(-c2nc(N[C@@H]3CCOC3)c(C)c(-c3ccc(OC)nc3)n2)c1 (stereo partly shown) [Example 408-1a]
Second: CNCC(O)COc1cccc(-c2nc(N[C@@H]3CCOC3)c(C)c(-c3cncc(C#N)c3)n2)c1 (stereo partly shown) [Example 341-1a]
The IC50 of the first is lower: 5 to 10 µM for the first, 10 to 20 µM for the second. The first is the more potent here.

`CNC[C@@H](O)COc1ccc(F)c(-c2nc(-c3c(C)noc3C)c(C)c(N3CC4(CCCCO4)C3)n2)c1` [Example 269-3] and `CNC[C@H](O)COc1ccc(F)c(-c2nc(N[C@H]3CCN(C4CC4)C[C@H]3F)c(C)c(-c3c(C)noc3C)n2)c1` [Example 99-3] cannot be ordered by IC50: < 5 µM for the first, < 5 µM for the second.

First: CNCC(O)COc1cccc(-c2nc(-c3cnc(C)n3C)cc(N(C)C3CCOCC3)n2)c1 (stereo not shown) [Example 517-1a]
Second: CNCC(O)COc1cccc(-c2nc(-c3cnc(CO)n3C)cc(N(C)C3CCOCC3)n2)c1 (stereo not shown) [Example 572-1a]
The IC50 of the first is lower: 5 to 10 µM for the first, 10 to 20 µM for the second.

Compared with `CNCC(O)COc1cccc(-c2nc(NCC3(N4CCC4)CCOCC3)c(C)c(-c3c(C)noc3C)n2)c1` (stereo not shown) [Example 301-1a], `CNC[C@@H](O)COc1cccc(-c2nc(NCC3CCOCC3)c(C)c(-c3c(C)noc3C)n2)c1` [Example 183-1a] is lower in IC50: 5 to 10 µM for the first, < 5 µM for the second. The second is the more potent here.

`CNCC(O)COc1cccc(-c2nc(NCCCCl)c(C)c(N[C@@H]3CCOC3)n2)c1` (stereo partly shown) [Example 366-1a] and `CNCC(O)COc1cccc(-c2nc(N[C@@H]3CCOC3)c(C)c(N3CCNCC3)n2)c1` (stereo partly shown) [Example 422-1a] fall in the same range of IC50: 10 to 20 µM for the first, 10 to 20 µM for the second.

First: CNCC(O)COc1cccc(-c2nc(-c3c(C)noc3C)cc(N3CCN(CCF)[C@H](C)C3)n2)c1 (stereo partly shown) [Example 145-1a]
Second: CNCC(O)COc1cccc(-c2nc(-c3c(C)noc3C)cc(N3CCN(C(=O)N(C)C)[C@@H](C)C3)n2)c1 (stereo partly shown) [Example 91-1a]
The IC50 of the first is higher: 5 to 10 µM for the first, < 5 µM for the second. The second is the more potent here.

`CNC[C@@H](O)COc1ccc(Cl)c(-c2nc(-c3c(C)noc3C)cc(N3Cc4nccnc4C3)n2)c1` [Example 251-3] and `CNC[C@@H](O)COc1ccc(F)c(-c2nc(-c3c(C)noc3C)cc(N3Cc4nccnc4C3)n2)c1` [Example 274-3] cannot be ordered by IC50: < 5 µM for the first, < 5 µM for the second.

First: CNCC(O)COc1cc(Cl)cc(-c2nc(C(=O)NCC3CCOCC3)cc(N(C)C3CCOCC3)n2)c1 (stereo not shown) [Example 508-1a]
Second: CNCC(O)COc1cc(Cl)cc(-c2nc(C(=O)OC)cc(N(C)C3CCOCC3)n2)c1 (stereo not shown) [Example 623-1a]
The IC50 of the first is lower: < 5 µM for the first, 10 to 20 µM for the second. The first is the more potent here.

`CNCC(O)COc1cccc(-c2nc(NCC3CCCN(CC(F)F)C3)c(C)c(-c3c(C)noc3C)n2)c1` (stereo not shown) [Example 193-1a] and `CCOC(=O)N1CCOC[C@@H]1CNc1nc(-c2cccc(OC[C@H](O)CNC)c2)nc(-c2c(C)noc2C)c1C` [Example 277-1a] cannot be ordered by IC50: < 5 µM for the first, < 5 µM for the second.

Compared with `CNCC(O)COc1cccc(-c2nc(-c3cnc4ncnn4c3)cc(N(C)C3CCOCC3)n2)c1` (stereo not shown) [Example 536-1a], `CNCC(O)COc1cc(Cl)cc(-c2nc(-c3cnn(C)c3)cc(N(C)C3CCOCC3)n2)c1` (stereo not shown) [Example 610-1a] is higher in IC50: 5 to 10 µM for the first, 10 to 20 µM for the second.

First: CNCC(O)COc1cccc(-c2nc(-c3c(C)noc3C)c(C)c(N3CC[C@@H](S(C)(=O)=O)C3)n2)c1 (stereo partly shown) [Example 111-1a]
Second: CC[C@H]1CN(c2nc(-c3cccc(OCC(O)CNC)c3)nc(-c3c(C)noc3C)c2C)CCN1S(=O)(=O)CC (stereo partly shown) [Example 154-1a]
The IC50 of the first is higher: 5 to 10 µM for the first, < 5 µM for the second.

`CNC[C@@H](O)COc1ccc(Cl)c(-c2nc(-c3c(C)noc3C)c(C)c(N3Cc4nccnc4C3)n2)c1` [Example 142-3] and `CNC[C@@H](O)COc1ccc(Cl)c(-c2nc(-c3c(C)noc3C)cc(N3Cc4cnn(C)c4C3)n2)c1` [Example 250-3] cannot be ordered by IC50: < 5 µM for the first, < 5 µM for the second.

`CNCC(O)COc1ccc(Cl)c(-c2nc(NC3CCOCC3)c(C)c(-c3c(C)nsc3C)n2)c1` (stereo not shown) [Example 97-3] and `CNC[C@@H](O)COc1ccc(C(F)(F)F)c(-c2nc(NC3CCOCC3)c(C)c(-c3c(C)noc3C)n2)c1` [Example 200-3] cannot be ordered by IC50: < 5 µM for the first, < 5 µM for the second.

`CNC[C@@H](O)COc1ccc(Cl)c(-c2nc(N[C@H]3C[C@@H](C)O[C@@H](C)C3)c(C)c(-c3c(C)noc3C)n2)c1` [Example 172-3] and `CNC[C@@H](O)COc1ccc(Cl)c(-c2nc(N[C@@H]3CO[C@H](C)C3)c(Cl)c(-c3c(C)noc3C)n2)c1` [Example 180-3] cannot be ordered by IC50: < 5 µM for the first, < 5 µM for the second.

Compared with `CNCC(O)COc1cc(Cl)cc(-c2nc(N[C@H]3CCOC3)cc(-c3c(C)noc3C)n2)c1` (stereo partly shown) [Example 12-1a], `CNCC(O)COc1cc(Cl)cc(-c2nc(N[C@@H]3CCOC3)c(C)c(-c3ccncc3)n2)c1` (stereo partly shown) [Example 331-1a] is lower in IC50: 10 to 20 µM for the first, 5 to 10 µM for the second.

`CNC[C@@H](O)COc1ccc(C(F)(F)F)c(-c2nc(NC3CCN(C(=O)OC)CC3)c(C)c(-c3c(C)noc3C)n2)c1` [Example 204-3] and `CCOC(=O)N1CCC[C@@H]1CCNc1nc(-c2cc(OC[C@H](O)CNC)ccc2Cl)nc(-c2c(C)noc2C)c1C` [Example 136-3] cannot be ordered by IC50: < 5 µM for the first, < 5 µM for the second.

First: CNCC(O)COc1cccc(-c2nc(N[C@@H]3CCOC3)c(C)c(N(C)C3CCN(C)CC3)n2)c1 (stereo partly shown) [Example 379-1a]
Second: CNCC(O)COc1cccc(-c2nc(-c3c(C)noc3C)c(C)c(N(C)[C@H]3C[C@@](C)(OC)C3)n2)c1 (stereo partly shown) [Example 20-3]
The IC50 of the first is higher: 10 to 20 µM for the first, < 5 µM for the second. The second is the more potent here.

Compared with `CNCC(O)COc1cccc(-c2nc(NC3CCS(=O)(=O)CC3)cc(-c3c(C)noc3C)n2)c1` (stereo not shown) [Example 60-1a], `CNCC(O)COc1cccc(-c2nc(NCCCN3CCCCCC3=O)cc(-c3c(C)noc3C)n2)c1` (stereo not shown) [Example 99-1a] is lower in IC50: 10 to 20 µM for the first, < 5 µM for the second. The second is the more potent here.

`CNC[C@@H](O)COc1ccc(Cl)c(-c2nc(N[C@H]3COC[C@@H]3O)c(C)c(-c3c(C)noc3C)n2)c1` [Example 209-3] and `CNC[C@@H](O)COc1ccc(Cl)c(-c2nc(N[C@H]3CCO[C@@H](C)C3)c(Cl)c(-c3c(C)noc3C)n2)c1` [Example 149-3] cannot be ordered by IC50: < 5 µM for the first, < 5 µM for the second.

First: CNC[C@@H](O)COc1ccc(Cl)c(-c2nc(OC[C@H]3CCCO3)c(C)c(-c3c(C)noc3C)n2)c1 [Example 116-3]
Second: CNCC(O)COc1cccc(-c2nc(-c3c(C)noc3C)cc(N(C)CCC#N)n2)c1 (stereo not shown) [Example 5-1a]
The IC50 of the first is lower: < 5 µM for the first, 10 to 20 µM for the second.

For `CNCC(O)COc1cc(Cl)cc(-c2nc(-c3cnc4ccccn34)c(C)c(N(C)C3CCOCC3)n2)c1` (stereo not shown) [Example 561-1a], the IC50 was 10 to 20 µM.
